Data: ChEMBL document CHEMBL1122420, “Parasympatholytic (anticholinergic) esters of the isomeric 2-tropanols. 2. Non-glycolates” (J Med Chem, 1983)

What was measured:
Mus musculus = experiment: Induction of mydriasis in mice following s.c. administration.; format: functional; conditions: sc
[1] = LD50 in mice following i.v. administration.; format: organism-based; conditions: mouse, in vivo, iv

SMILES | ED50 (Mus musculus) [mg/kg] | LD50 [1] [mg/kg]
CN1[C@@H]2CC[C@H]1C[C@@H](OC(=O)C(CO)c1ccccc1)C2 (stereo not given in full) [ATROPINE] | 0.061 | 
CCCC(C(=O)O[C@@H]1CCC2CCC1N2C)(c1ccccc1)c1ccccc1 (single isomer, unassigned; (+)) | > 10 | 18
CN1C2CCC1[C@H](OC(=O)CC(O)(c1ccccc1)c1ccccc1)CC2 (single isomer, unassigned; (+)) | > 10 | 18
CN1C2CCC1[C@H](OC(=O)C13CC4CC(CC(C4)C1)C3)CC2 (single isomer, unassigned; (+)) | > 10 | 32
CN1[C@@H]2C[C@@H](OC(=O)[C@H](CO)c3ccccc3)C[C@H]1[C@@H]1O[C@@H]12 [SCOPOLAMINE] | 0.012 | 
COc1cc(C(=O)O[C@@H]2CCC3CCC2N3C)cc(OC)c1OC (single isomer, unassigned; (+)) | 32 | 56
CN1C2CCC1[C@H](OC(=O)C(OCc1ccccc1)(c1ccccc1)c1ccccc1)CC2.Cl (single isomer, unassigned; (+)) | 5.6 | 56
CN1C2CCC1[C@@H](OC(=O)C1c3ccccc3CCc3ccccc31)CC2 (single isomer, unassigned; (-)) | > 10 | 18
CN1C2CCC1[C@H](OC(=O)C(CO)c1ccccc1)CC2 (single isomer, unassigned; (+)) | 0.1 | 50
CN1C2CCC1[C@H](OC(=O)C(Cl)(c1ccccc1)c1ccccc1)CC2.Cl (single isomer, unassigned; (+)) | 0.03 | 22
CCCOC(C(=O)O[C@@H]1CCC2CCC1N2C)(c1ccccc1)c1ccccc1 (single isomer, unassigned; (+)) | 0.94 | 22
CN1C2CCC1[C@H](OC(=O)C(F)(c1ccccc1)c1ccccc1)CC2 (single isomer, unassigned; (+)) | 0.25 | 36
COc1cc(C(=O)O[C@H]2CCC3CCC2N3C)cc(OC)c1OC (single isomer, unassigned; (-)) | > 10 | 18
CN1C2CCC1[C@H](OC(=O)c1cc(=O)c3ccccc3o1)CC2 (single isomer, unassigned; (+)) | > 10 | 100
CN1C2CCC1[C@H](OC(=O)N1c3ccccc3Sc3cccnc31)CC2 (single isomer, unassigned; (+)) | 5.6 | 32
CN1C2CCC1[C@H](OC(=O)C1c3ccccc3CCc3ccccc31)CC2 (single isomer, unassigned; (+)) | 5.6 | 32
